In patent US10774064B2 (Cadent Therapeutics, Inc., priority 2016, dated 2020):
Counter-ions that a name gives are not always drawn.

biological target: T1, small-conductance Ca2+-activated K+ channels (SK channels, subtype 2) (Homo sapiens, UniProt Q9H2S1); assay: whole-cell patch-clamp of ionic current through SK2 channels in HEK293 cells (SC100); format: cell-based; conditions: concentration that increases the basal current by 100%; HEK293 cells expressing SK2 channels
T1 construct: expressed in transfected cells; host or cells: HEK293
In short: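 Whole-cell patch-clamp recording of current in HEK293 cells expressing SK2 channels. SC100 is the compound concentration that increases basal current by 100%.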

| SC100 | Structure (SMILES) |
| --- | --- |
| ++ (++ means 200 nM-1000 nM) | FCc1csc(-c2nc(NC3CCC(F)(F)CC3)cc(N3CCOCC3)n2)n1 [Compound 336, N-(4,4-difluorocyclohexyl)-2-(4-(fluoromethyl)thiazol-2-yl)-6-morpholinopyrimidin-4-amine] |
| + (+ means >1 uM) | Cc1cc(C)n(-c2cc(NC3CCN(C)C3=O)cc(NC3CCC(F)(F)CC3)n2)n1 (racemic) [Compound 135, 3-((2-((4,4-difluorocyclohexyl)amino)-6-(3,5-dimethyl-1H-pyrazol-1-yl)pyridin-4-yl)amino)-1-methylpyrrolidin-2-one] |
| ++ (++ means 200 nM-1000 nM) | Cc1cc(C)n(-c2cc(NC3COC3)cc(NC3CCC(F)(F)CC3)n2)n1 [Compound 228, N2-(4,4-difluorocyclohexyl)-6-(3,5-dimethyl-1H-pyrazol-1-yl)-N4-(oxetan-3-yl)pyridine-2,4-diamine] |
| ++ (++ means 200 nM-1000 nM) | Cc1cc(C)n(-c2nc(CO)cc(NC3CCC(F)(F)CC3)n2)n1 [Compound 137, (6-((4,4-difluorocyclohexyl)amino)-2-(3,5-dimethyl-1H-pyrazol-1-yl)pyrimidin-4-yl)methanol] |
| + (+ means >1 uM) | Cc1cc(C)n(-c2nccc(NC3CCC(F)(F)CC3)n2)n1 [Compound 163, N-(4,4-difluorocyclohexyl)-2-(3,5-dimethyl-1H-pyrazol-1-yl)pyrimidin-4-amine] |
| ++ (++ means 200 nM-1000 nM) | CC(=O)NCc1cc(NC2CCC(F)(F)CC2)nc(-n2cc(C)c(CF)n2)c1 [Compound 349, N-((2-((4,4-difluorocyclohexyl)amino)-6-(3-(fluoromethyl)-4-methyl-1H-pyrazol-1-yl)pyridin-4-yl)methyl)acetamide] |
| + (+ means >1 uM) | Cc1cc(C)n(-c2nc(NC3CCC(F)(F)CC3)cc(N[C@@H]3CCN(C)C3=O)n2)n1 [Compound 129, (−)-3-((6-((4,4-difluorocyclohexyl)amino)-2-(3,5-dimethyl-1H-pyrazol-1-yl)pyrimidin-4-yl)amino)-1-methylpyrrolidin-2-one] |

| Structure (SMILES) | SC100 |
| --- | --- |
| FCc1ccn(-c2nc(NC3CCC(F)(F)CC3)cc(OC3CC(F)C3)n2)n1 (stereo not drawn) [Compound 346, N-(4,4-difluorocyclohexyl)-6-(3-fluorocyclobutoxy)-2-(3-(fluoromethyl)-1H-pyrazol-1-yl)pyrimidin-4-amine] | + (+ means >1 uM) |

same assay, conditions: whole-cell patch-clamp, HEK293 cells expressing SK2 channels; concentration that increases the basal current by 100%

| Structure (SMILES) | SC100 (μM) |
| --- | --- |
| Cc1csc(-c2nc(NC3CCC(F)(F)CC3)cc(C3CCC3)n2)n1 [IN11054-081-P1, 6-cyclobutyl-N-(4,4-difluorocyclohexyl)-2-(4-methylthiazol-2-yl)pyrimidin-4-amine] | ++ (++ means 200 nM-1000 nM) |
| Cc1cc(NC2CCC(F)(F)CC2)nc(-n2[nH]c(=O)cc2N)n1 [IN11140-007-P1, 5-amino-1-(4-((4,4-difluorocyclohexyl)amino)-6-methylpyrimidin-2-yl)-1,2-dihydro-3H-pyrazol-3-one] | + (+ means >1 uM) |
| Cc1cc(C)n(-c2nc(NC3CCC(F)(F)CC3)nc(N3CCOCC3)n2)n1 [IN10881-098-P1, N-(4,4-difluorocyclohexyl)-4-(3,5-dimethyl-1H-pyrazol-1-yl)-6-morpholino-1,3,5-triazin-2-amine] | + (+ means >1 uM) |
| Cc1ccn(-c2nc(NCC3CCCO3)cc(C(C)O)n2)n1 (stereo not drawn) [IN10880-055-P1] | + (+ means >1 uM) |
| COc1cc(NC2CCCCC2(F)F)nc(-c2nc(C)cs2)n1 (stereo not drawn) [IN11140-063-P1] | + (+ means >1 uM) |
| COc1cc(NC2CC(F)(F)C2)nc(-n2nc(C)cc2C)n1 [IN11108-018-P1] | + (+ means >1 uM) |
| Cc1ccn(-c2nc(NC3CCC(F)(F)CC3)cc(C(C)(F)F)n2)n1 [IN10876-069-P1, N-(4,4-difluorocyclohexyl)-6-(1,1-difluoroethyl)-2-(3-methyl-1H-pyrazol-1-yl)pyrimidin-4-amine] | + (+ means >1 uM) |
| COc1cc(NC2CCC(C)(C)CC2)nc(-c2nc(C)cs2)n1 [IN11055-069-P1, N-(4,4-dimethylcyclohexyl)-6-methoxy-2-(4-methylthiazol-2-yl)pyrimidin-4-amine] | ++ (++ means 200 nM-1000 nM) |
| COCCOCc1cc(NC2CCC(F)(F)CC2)nc(-n2ccc(C)n2)c1 [IN11125-012-P1] | ++ (++ means 200 nM-1000 nM) |
| Cc1cc(NC2CC=C(F)CC2)nc(-c2nc(C)cs2)n1 (stereo not drawn) [IN10966-057-P2, N-(4-fluorocyclohex-3-en-1-yl)-6-methyl-2-(4-methylthiazol-2-yl)pyrimidin-4-amine] | ++ (++ means 200 nM-1000 nM) |
| Cc1cc(C)n(-c2nc(CCO)cc(NC3CCC(F)(F)CC3)n2)n1 [IN10963-077-P1, 2-(6-((4,4-difluorocyclohexyl)amino)-2-(3,5-dimethyl-1H-pyrazol-1-yl)pyrimidin-4-yl) ethan-1-ol] | + (+ means >1 uM) |
| Cc1ccn(-c2nc(N[C@@H]3CCCC[C@H]3F)cc(N3CCOCC3)n2)n1 [IN11133-031-P1] | + (+ means >1 uM) |
| Cc1csc(-c2nc(NC3CCCCC3(F)F)cc(C(C)O)n2)n1 (stereo not drawn) [IN11140-083-P1, 1-(6-((2,2-difluorocyclohexyl)amino)-2-(4-methylthiazol-2-yl)pyrimidin-4-yl) ethan-1-ol] | + (+ means >1 uM) |
| Cc1csc(-c2cc(N3CCN4C(=O)OCC4C3)cc(NC3CCC(F)(F)CC3)n2)n1 (stereo not drawn) [NSSy5824] | +++ (+++ means <200 nM) |
| Cc1csc(-c2nc(NC3CCC(F)(F)CC3)cc(OCc3ncn(C)n3)n2)n1 [NSSy5690] | ++ (++ means 200 nM-1000 nM) |
| Cc1cc(C)n(-c2nc(NC3CCC(F)(F)CC3)cc(N3CCOC(COC(F)F)C3)n2)n1 (stereo not drawn) [IN10984-022-P1] | ++ (++ means 200 nM-1000 nM) |
| COc1cc(NC2CCC2)nc(-c2nc(C)cs2)n1 [IN11111-003-P1] | + (+ means >1 uM) |
| Cc1cc(C)n(-c2cc(OCc3ncco3)cc(NC3CCC(F)(F)CC3)n2)n1 [IN11067-023-P1, N-(4,4-difluorocyclohexyl)-6-(3,5-dimethyl-1H-pyrazol-1-yl)-4-(oxazol-2-ylmethoxy)pyridin-2-amine] | +++ (+++ means <200 nM) |
| Cc1ccn(-c2nc(NC3CCCCC3(F)F)cc(N3CCOCC3)n2)n1 (stereo not drawn) [IN11140-062-P1] | + (+ means >1 uM) |
| Cc1ccn(-c2nc(N3CCOCC3)cc3c2CCN3)n1 [IN11063-092-P1, 4-(4-(3-methyl-1H-pyrazol-1-yl)-2,3-dihydro-1H-pyrrolo[3,2-c]pyridin-6-yl)morpholine hydrochloride] | + (+ means >1 uM) |

More lines, now with the values ahead:

| SC100 (μM) | Structure (SMILES) |
| --- | --- |
| +++ (+++ means <200 nM) | CC(=O)N1CCC(c2cc(NC3CCC(F)(F)CC3)nc(-n3ccc(C)n3)c2)CC1 [NSSy6910] |
| + (+ means >1 uM) | Cc1csc(-c2cc(OC3CCC(F)(F)CC3)nc(N3CCOCC3)c2)n1 [NSSy6374, 4-(6-((4,4-difluorocyclohexyl)oxy)-4-(4-methylthiazol-2-yl)pyridin-2-yl) morpholine] |
| ++ (++ means 200 nM-1000 nM) | CCC(=O)N1CC(Oc2cc(NC3CCC(F)(F)CC3)nc(-c3nc(C)cs3)n2)C1 [NSSy5726] |
| ++ (++ means 200 nM-1000 nM) | FC1(F)CCC(Nc2cc(N3CCCOCC3)nc(-n3ccc(C4CC4)n3)n2)CC1 [IN11217-003-P1, 2-(3-cyclopropyl-1H-pyrazol-1-yl)-N-(4,4-difluorocyclohexyl)-6-(1,4-oxazepan-4-yl)pyrimidin-4-amine] |
| + (+ means >1 uM) | COC(=O)N1CC(Oc2ccnc(-c3nc(C)cs3)n2)C1 [NSSy6057] |
| + (+ means >1 uM) | COc1cnc(-n2ccc(C3CC3)n2)nc1NC1CCC(F)(F)CC1 [NSSy7063] |
| +++ (+++ means <200 nM) | CC(=O)N1CCC(Oc2cc(-n3ccc(C)n3)nc(NC3CCC(F)(F)CC3)n2)CC1 [NSSy6914] |
| ++ (++ means 200 nM-1000 nM) | Cc1csc(-c2nc(NC3CCC(F)(F)CC3)cc(N3CC4CC3CO4)n2)n1 (stereo not drawn) [NSSy6116] |
| ++ (++ means 200 nM-1000 nM) | Cc1csc(-c2nc(NC3CCC(F)(F)CC3)cc(N3CC4CCC(C3)O4)n2)n1 [NSSy6129] |
| ++ (++ means 200 nM-1000 nM) | Cc1csc(-c2cc(C(O)c3nnc(C)o3)cc(NC3CCC(F)(F)CC3)n2)n1 (stereo not drawn) [NSSy6750, (2-((4,4-difluorocyclohexyl)amino)-6-(4-methylthiazol-2-yl)pyridin-4-yl)(5-methyl-1,3,4-oxadiazol-2-yl)methanol] |
| ++ (++ means 200 nM-1000 nM) | CC(=O)N1CCN(c2cc(-n3ccc(C)n3)nc(NC3CCC(F)(F)CC3)n2)CC1 [NSSy6629, 1-(4-(2-((4,4-difluorocyclohexyl)amino)-6-(3-methyl-1H-pyrazol-1-yl)pyrimidin-4-yl)piperazin-1-yl)ethan-1-one] |
| +++ (+++ means <200 nM) | Cc1ccn(-c2cc(OCCn3nncc3C)cc(NC3CCC(F)(F)CC3)n2)n1 [NSSy6719] |
| ++ (++ means 200 nM-1000 nM) | Cc1cc(NC2CCC(F)(F)CC2)nc(-n2ccc(C(C)F)n2)n1 (stereo not drawn) [IN11243-042-P1, N-(4,4-difluorocyclohexyl)-2-(3-(1-fluoroethyl)-1H-pyrazol-1-yl)-6-methylpyrimidin-4-amine] |
| + (+ means >1 uM) | COC(=O)N1CC(Oc2cc(NC3CCC(C(F)(F)F)CC3)nc(-c3nc(C)cs3)n2)C1 (stereo not drawn) [NSSy6078, methyl 3-((2-(4-methylthiazol-2-yl)-6-((4-(trifluoromethyl)cyclohexyl)amino)pyrimidin-4-yl)oxy) azetidine-1-carboxylate] |
| ++ (++ means 200 nM-1000 nM) | Cc1ccn(-c2cc(C(O)c3ncco3)cc(NC3CCC(F)(F)CC3)n2)n1 (stereo not drawn) [NSSy6395] |
| ++ (++ means 200 nM-1000 nM) | Cc1ccn(-c2cc(N3CC(C)(O)C3)cc(NC3CCC(F)(F)CC3)n2)n1 [NSSy5721] |
| + (+ means >1 uM) | COC(=O)N1CC(Oc2cc(N(C)C3CCC(F)(F)CC3)nc(-c3nc(C)cs3)n2)C1 [NSSy6105, methyl 3-((6-((4,4-difluorocyclohexyl) (methyl)amino)-2-(4-methylthiazol-2-yl)pyrimidin-4-yl)oxy) azetidine-1-carboxylate] |
